# Earlier results as cited in patent US5321127A, “Antiplatelet and antithrombotic activity of platelet glycoprotein Ib receptor fragments” (priority 1991, dated 1994).
# System: vWF binding to platelets
# Details: literature
substance,measurement,value
"synthetic peptide spanning amino acid residues aspartate235 to lysine262: GpIbα synthetic peptide reported by Katagiri et al. (DVKAMTSNVASVQCDNSDKFPVYKYPGK; UniProt P07359 251-278, looked up, fragment)",Inhibition of ristocetin-dependent binding of vWF to platelets,inhibited
